Experimental findings from patent publication US6348461B1, “6,7-asymmetrically disubstituted quinoxalinecarboxylic acid derivatives, addition salts thereof, and processes for the preparation of both” (Kyorin Pharmaceutical Co., Ltd., priority 1997, dated 2002) are described below.

As usually defined, the Ki is the equilibrium dissociation constant of an inhibitor or competing ligand from its target. Higher therefore signals lower affinity. One may read the melting point as the temperature, or range, at which the solid turns liquid.

The target of data set [1] is AMPA receptor. Kind of data set: Binding experiment to AMPA receptor ([3H]-AMPA displacement, crude synaptosome membrane preparations). On the set-up: species or system rats. The following applies: crude synaptosome membranes from rat cerebral cortex; [3H]-AMPA 5 nM; potassium thiocyanate 100 mM; 30 minutes at 0° C.; Ki converted from IC50. The protocol:
Binding Experiment to AMPA Receptor
After the reactions were stopped by suction filtration, the radio activity on the filter was measured with liquid scintillation counter. The specific binding of [^3H]-AMPA was determined by subtracting nonspecific binding level in the presence of glutamic acid (0.1 mM) from overall binding level.

In turn, `O=C(O)c1nc2cc(Cl)c([N+](=O)[O-])cc2[nH]c1=O` [Example 5, 7-Chloro-3,4-dihydro-6-nitro-3-oxoquinoxaline-2-carboxylic Acid] showed a Ki in data set [1] of 1260 nM.

Compound `O=C(O)c1nc2cc(F)c([N+](=O)[O-])cc2[nH]c1=O` [Example 6, 3,4-Dihydro-7-fluoro-6-nitro-3-oxoquinoxaline-2-carboxylic Acid] displayed a Ki in data set [1] of 2010 nM.

Consider `O=C(O)c1nc2cc(Br)c([N+](=O)[O-])cc2[nH]c1=O` [Example 7, 7-Bromo-3,4-dihydro-6-nitro-3-oxoquinoxaline-2-carboxylic Acid], for which the affinity in data set [1] corresponds to a Ki of 630 nM.

As for `Cc1cc2nc(C(=O)O)c(=O)[nH]c2cc1[N+](=O)[O-]` [Example 8, 3,4-Dihydro-7-methyl-6-nitro-3-oxoquinoxaline-2-carboxylic Acid], the melting point lay within 239 to 242 °C. For the same compound, the Ki in data set [1] came to 330 nM.

Turning to `O=C(O)c1nc2cc(N3CCOCC3)c([N+](=O)[O-])cc2[nH]c1=O` [Example 35, 3,4-Dihydro-7-morpholino-6-nitro-3-oxoquinoxaline-2-carboxylic Acid], the melting point was in the range of 213.5 to 214.5 °C. Moreover, affinity in data set [1] was put at a Ki of 2040 nM.

With `O=C(O)c1nc2cc(-n3ccnc3)c([N+](=O)[O-])cc2[nH]c1=O` [Example 36, 3,4-Dihydro-7-(imidazole-1-yl)-6-nitro-3-oxoquinoxaline-2-carboxylic Acid], the melting point is greater than 300 °C. For the same compound, affinity in data set [1] was put at a Ki of 450 nM.

`O=C(O)c1nc2cc(-n3ccc(=O)cc3)c([N+](=O)[O-])cc2[nH]c1=O` [Example 37, 3,4-Dihydro-6-nitro-3-oxo-7-(4-pyridone-1-yl)quinoxaline-2-carboxylic Acid] returned a melting point of 283 to 285 °C. This compound also showed a Ki in data set [1] of 330 nM.

With `CN(C)c1cc2nc(C(=O)O)c(=O)[nH]c2cc1[N+](=O)[O-]` [Example 39, 3,4-Dihydro-7-dimethylamino-6-nitro-3-oxoquinoxaline-2-carboxylic Acid], in data set [1], affinity was put at a Ki of 910 nM.

For `O=C(O)c1nc2cc(Oc3ccccc3)c([N+](=O)[O-])cc2[nH]c1=O` [Example 62, 3,4-Dihydro-6-nitro-3-oxo-7-phenoxyquinoxaline-2-carboxylic Acid], the melting point is 154 to 156 °C (dec.). In data set [1], this compound yielded a Ki of 860 nM.

`Cl.O=C(O)c1nc2cc(Cn3ccnc3)c([N+](=O)[O-])cc2[nH]c1=O` [Example 66, 3,4-Dihydro-7-(imidazole-1-yl)methyl-6-nitro-3-oxoquinoxaline-2-carboxylic Acid Hydrochloride] yielded a melting point greater than 300 °C. Also, affinity in data set [1] was put at a Ki of 360 nM.

For `O=C(Nc1ccccc1F)OCc1cn(-c2cc3nc(C(=O)O)c(=O)[nH]c3cc2[N+](=O)[O-])cn1` [Example 96], the melting point was 251 to 253 °C (dec.). In data set [1], this compound registered a Ki of 28.2 nM.

For the compound `O=C(Nc1ccccc1C(F)(F)F)OCc1cn(-c2cc3nc(C(=O)O)c(=O)[nH]c3cc2[N+](=O)[O-])cn1` [Example 101], the melting point was 230 to 232 °C (dec.). The compound further registered a Ki in data set [1] of 32.3 nM.

In the case of `O=C(Nc1ccccc1)OCc1cn(-c2cc3nc(C(=O)O)c(=O)[nH]c3cc2[N+](=O)[O-])ccc1=O` [Example 121, 3,4-Dihydro-6-nitro-3-oxo-7-(3-((N-phenylcarbamoyloxy)methyl)-4-pyridone-1-yl)quinoxaline-2-carboxylic Acid], the melting point is 230 to 232 °C (dec.). In addition, the affinity in data set [1] corresponds to a Ki of 172 nM.

With `O=C(Nc1cccc(Br)c1)OCc1cn(-c2cc3nc(C(=O)O)c(=O)[nH]c3cc2[N+](=O)[O-])ccc1=O` [Example 123], the melting point was 199 to 201 °C (dec.). Also, the Ki in data set [1] amounted to 48.1 nM.

`O=C(Nc1ccccc1)OCc1cn(-c2cc3nc(C(=O)O)c(=O)[nH]c3cc2C(F)(F)F)cn1` [Example 235, 3,4-Dihydro-3-oxo-7-((4-(N-phenylcarbamoyloxy)methyl)imidazole-1-yl)-6-trifluoromethylquinoxaline-2-carboxylic Acid]: the melting point was 193 to 195 °C (dec.).

`CCOC(=O)c1ccc(NC(=O)OCc2cn(-c3cc4nc(C(=O)O)c(=O)[nH]c4cc3[N+](=O)[O-])cn2)cc1` [Example 278, 3,4-Dihydro-7-(4-((N-(4-ethoxycarbonylphenyl)carbamoyloxy)methyl)imidazolyl)-6-nitro-3-oxoquinoxaline-2-carboxylic Acid]: the melting point is 207 to 209 °C (dec.).

As to `O=C(O)Cc1cn(-c2cc3nc(C(=O)O)c(=O)[nH]c3cc2[N+](=O)[O-])cn1` [Example 303, 7-(4-(Carboxymethyl)imidazolyl)-3,4-dihydro-6-nitro-3-oxoquinoxaline-2-carboxylic Acid], the melting point was greater than 300 °C.

Turning to `CCOC(=O)c1ccc(NC(=O)OCc2cn(-c3cc4nc(C(=O)O)c(=O)[nH]c4cc3[N+](=O)[O-])ccc2=O)cc1` [Example 306, 7-(3-((N-(4-Ethoxycarbonylphenyl)carbamoyloxy)methyl)-4-pyridone-1-yl)-3,4-dihydro-6-nitro-3-oxoquinoxaline-2-carboxylic Acid], the melting point was 201 to 203 °C (dec.).

With `O=C(Nc1ccc(C(=O)O)cc1)OCc1cn(-c2cc3nc(C(=O)O)c(=O)[nH]c3cc2[N+](=O)[O-])ccc1=O` [Example 307, 7-(3-((N-(4-Carboxyphenyl)carbamoyloxy)methyl)-4-pyridone-1-yl)-3,4-dihydro-6-nitro-3-oxoquinoxaline-2-carboxylic Acid], the melting point was 231 to 233 °C (dec.).
